Reference: paper PMC9323955, “Synthesis and Evaluation of Small Molecule Drug Conjugates Harnessing Thioester-Linked Maytansinoids” (Pharmaceutics, 2022)

How the values were obtained:
[1] = PS SPR binding assay (Biacore T200, L1 chip); details: DOPC/DOPS (3:1, v/v) liposomes on L1 chip, 25 °C
Procedure: Phospholipids, 1,2-dioleoyl-sn-glycero-3-phosphocholine (DOPC) and 1,2-dioleoyl-sn-glycero-3-[phosphate-L-serine] (DOPS) were obtained as chloroform solutions from Avanti Polar Lipids (Alabaster, AL, USA). These stock solutions were mixed in the specified proportions. A 0.4 mL aliquot of the lipid solution at a 10 mg/mL concentration was added to a round bottom flask and evaporated under a stream of N2 to provide a thin lipid film. The lipid films were rehydrated in PBS buffer for at least 1 h at room temperature. The resulting suspension was extruded through a 100 nm polycarbonate filter using an Avanti MiniExtruder according to the manufacturer’s instructions. Zeta potential (ZP) and liposome size distribution were recorded by dynamic light scattering (DLS) and microelectrophoresis using a Zetasizer Nano ZS instrument. The binding kinetics between conjugates and liposomes were recorded at 25 °C using a Biacore T200 biosensor equipped with an L1 sensor chip (GE Healthcare, Chicago, IL, USA). The new sensor chip was pretreated with running buffer (5% DMSO in phosphate buffered saline (PBS) at a pH of 7.4) and two consecutive 30 s pulses of 2:3 v/v 50 mM HCl/isopropanol at a flow rate of 30 μL/min. New liposome capture plates were prepared for each binding cycle. In PBS buffer, liposomes are diluted to 0.5–1 mM and captured to saturation in isolated flow cells at 2–5 μL/min (30–150 s). […]

[2] = test system: HCC1806 triple-negative breast cancer cells; assay: MTS cell viability assay (72 h); format: cell-based, human; details: Homo sapiens, HCC1806; 72 h incubation, MTS; read-out: IC50, cytotoxicity against HCC1806 cells
Procedure: HCC1806 cells were grown in RPMI 1640 medium, and MTS assays were performed to check cell viability. Cells (2500–3000 cells/well) were grown in flat-bottomed 96-well plates for 24 h, and then serial dilutions of the compound were added, and cells were allowed to incubate for a further 72 h. At the end of the 72-h incubation period, the medium was removed, and 100 μL of a solution including a mixture of MTS and PMS was added. The cells were incubated for 1.5 h at 37 °C in a humidified incubator with 5% CO2 to allow viable cells to convert tetrazolium salts to formazan. Conversion to formazan was measured by absorbance (490 nm) using a BioTek PowerWave-X absorbance microplate meter. The data collected were normalized using a DMSO-treated control (100% viability) and a background control (0% viability) to verify growth inhibition.

[3] = test system: HCC1806 human triple-negative breast cancer tumors; assay: HCC1806 xenograft tumor efficacy; format: in vivo, female nude mice; details: 0.3 mg/kg i.v. twice weekly for 2 weeks
Procedure: Cancer cells suspended in RPMI 1640 medium (11835-030, Thermo Fisher Scientific, Waltham, MA, USA) were mixed with Matrigel™ (356237, BD Biosciences, Franklin Lakes, NJ, USA) in a 1:1 ratio. Human triple-negative breast cancer HCC1806 (1 × 10^6 cells) cells were inoculated subcutaneously into the left flank of 6-week-old female nude mice (BioLASCO Taiwan, Taipei, Taiwan) using a 1 mL syringe with a 24G needle (AN-2425R, Terumo Medical Corp., Tokyo, Japan). Tumor dimensions were measured twice weekly using electronic calipers (FOW54-200-777, PRO-MAX), and the volume of tumor grown subcutaneously (mm^3) was calculated by the formula Volume = (length × width^2)/2. A combination of 10% DMA/20% Cremophor EL/70% 5% dextrose injection (D5W) was formulated to treat HCC1806 xenograft tumors. Mice with HCC1806 tumors were grouped and administered the indicated dosing regimen of 1 mg/kg for the conjugate and 0.3 mg/kg for the cytotoxic payloads DM1 and DM4 twice-weekly (day 1 and day 4) for 2 weeks when the mean tumor volume was approximately 200–250 mm^3 or 850–900 mm^3 (large tumors). The conjugate dose of 2 mg/kg was administered weekly for the large tumor study. The body weight and tumor volume of mice were measured twice weekly. In addition, a previously reported oncogene-induced, sorafenib-resistant HCC mouse model was used in the current study to examine the antitumor activities of synthesized compounds. Briefly, plasmids including transposase (pCMV(CAT)T7-SB100), human Akt1, and luciferase (pKT2/CLP-AKT-2A-OVA-HBc-HBs-LUC) and the N-Ras V12 mutant (pT/Caggs-NRASV12) were hydrodynamically injected (HDI) and the liver was monitored for the appearance of HCC. HCC mice with a total flux of more than 1 × 10^9 photons/s from IVIS imaging were used as treatment conjugates. The indicated conjugate was administered intravenously at 1 mg/kg 3 times per week over 2 weeks. IVIS imaging was repeatedly performed to follow tumor progression, and tumor tissue from treated HCC mice was collected for histological examination and RNA extraction after administration.

[4] = Plasma stability, 24 h incubation with plasma (HPLC); format: in vitro ADME
Procedure: Zn8_DM1: 0H VS. 24H in plasma.
Zn10_DM4: 0H VS. 24H in plasma.
Supporting Figure S1. Incubation of Linker-drug 3 and 4, conjugates Zn8_DM1 and
Zn10_DM4, DM1 and DM4 with plasma for 24 hrs. HPLC condition is listed below. […]

Row | Compound | association with PS-coated liposomes (SPR) [1] | IC50 [2] [nM] | anti-HCC1806 tumor growth activity of free payload [3] | cleavage of the maytansinoid after incubation with plasma [4]
1 | COc1cc2cc(c1Cl)N(C)C(=O)C[C@H](OC(=O)[C@H](C)N(C)C(=O)CCS)[C@]1(C)O[C@H]1[C@H](C)[C@@H]1C[C@@](O)(NC(=O)O1)[C@H](OC)/C=C/C=C(\C)C2 [DM1, (14S,16S,32R,33S,2R,4S,10E,12E,14R)-86-chloro-14-hydroxy-85,14-dimethoxy-33,2,7,10-tetramethyl-12,6-dioxo-7-aza-1(6,4)-oxazinana-3(2,3)-oxirana-8(1,3)-benzenacyclotetradecaphane-10,12-dien-4-yl N-(3-mercaptopropanoyl)-N-methyl-D-alaninate, reference compound] | did not show association properties | 21 | – | –
2 | COc1cc2cc(c1Cl)N(C)C(=O)CC(OC(=O)C(C)N(C)C(=O)CCC(C)(C)S)C1(C)OC1C(C)C1CC(O)(NC(=O)O1)C(OC)C=CC=C(C)C2 [DM4, (14R,16R,33R,2S,4S,10E,12Z,14S)-86-chloro-14-hydroxy-85,14-dimethoxy-33,2,7,10-tetramethyl-12,6-dioxo-7-aza-1(6,4)-oxazinana-3(2,3)-oxirana-8(1,3)-benzenacyclotetradecaphane-10,12-dien-4-yl N-(4-mercapto-4-methylpentanoyl)-N-methyl-D-alaninate, reference compound] | – | 7 | marginal improvement in its antitumor activity | –
3 | COc1cc2cc(c1Cl)N(C)C(=O)C[C@H](OC(=O)[C@H](C)N(C)C(=O)CCSC(=O)c1ccc(CN(CCOCCOCCNC(=O)OC(C)(C)C)C(=O)C3(c4ccc(Cl)cc4)CCCCC3)cc1)[C@]1(C)O[C@H]1[C@H](C)[C@@H]1C[C@@](O)(NC(=O)O1)[C@H](OC)/C=C/C=C(\C)C2 [compound 3, (14R,16R,33R,2S,4S,10E,12Z,14S)-86-Chloro-14-hydroxy-85,14-dimethoxy-33,2,7,10-tetramethyl-12,6-dioxo-7-aza-1(6,4)-oxazinana-3(2,3)-oxirana-8(1,3)-benzenacyclotetradecaphane-10,12-dien-4-yl N-(3-((4-(2-(1-(4-chlorophenyl)cyclohexane-1-carbonyl)-14,14-dimethyl-12-oxo-5,8,13-trioxa-2,11-diazapentadecyl)benzoyl)thio)propanoyl)-N-methyl-L-alaninate] | – | – | – | No cleavage
4 | COc1cc2cc(c1Cl)N(C)C(=O)CC(OC(=O)C(C)N(C)C(=O)CCC(C)(C)SC(=O)c1ccc(CN(CCOCCOCCNC(=O)OC(C)(C)C)C(=O)C3(c4ccc(Cl)cc4)CCCCC3)cc1)C1(C)OC1C(C)C1CC(O)(NC(=O)O1)C(OC)C=CC=C(C)C2 [compound 4, (14R,16R,33R,2S,4S,10E,12Z,14S)-86-Chloro-14-hydroxy-85,14-dimethoxy-33,2,7,10-tetramethyl-12,6-dioxo-7-aza-1(6,4)-oxazinana-3(2,3)-oxirana-8(1,3)-benzenacyclotetradecaphane-10,12-dien-4-yl N-(4-((4-(2-(1-(4-chlorophenyl)cyclohexane-1-carbonyl)-14,14-dimethyl-12-oxo-5,8,13-trioxa-2,11-diazapentadecyl)benzoyl)thio)-4-methylpentanoyl)-N-methyl-D-alaninate] | – | – | – | No cleavage
